Data as given in PubChem BioAssay AID248 (DTP/NCI, 2004).
“And” between values parts separate entries of the source, which are not always exact repeats. Equal entries are not always repeated. Toxic doses and inconclusive results are not listed.

Tested on: L1210 leukemia ip in BDF1 mice, survival T/C
Assay: NCI In Vivo Anticancer Drug Screen. Data for tumor model L1210 Leukemia (intraperitoneal) in B6D2F1 (BDF1) mice
Settings: endpoint: mean survival time, higher = longer survival
In short: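 Tumor cells were implanted, animals were treated, and survival was followed. The result divides the treated measurement by the vehicle-control measurement.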

[1] = dose: 100.0 mg/kg/injection, schedule: Q01DX009 (ip), vehicle: Klucel (hydroxypropylcellulose) (HPC)
[2] = dose: 200.0 mg/kg/injection, schedule: Q01DX009 (ip), vehicle: Klucel (hydroxypropylcellulose) (HPC)
[3] = dose: 400.0 mg/kg/injection, schedule: Q01DX009 (ip), vehicle: Klucel (hydroxypropylcellulose) (HPC)
[4] = dose: 100.0 mg/kg/injection, schedule: Q04DX003 (ip), vehicle: saline with Tween-80
[5] = dose: 200.0 mg/kg/injection, schedule: Q04DX003 (ip), vehicle: saline with Tween-80
[6] = dose: 100.0 mg/kg/injection, schedule: Q01DX001 (ip), vehicle: saline
[7] = dose: 200.0 mg/kg/injection, schedule: Q01DX001 (ip), vehicle: saline
[8] = dose: 400.0 mg/kg/injection, schedule: Q01DX001 (ip), vehicle: saline
[9] = dose: 400.0 mg/kg/injection, schedule: Q04DX003 (ip), vehicle: saline with Tween-80
[10] = dose: 100.0 mg/kg/injection, schedule: Q04DX003 (ip), vehicle: Klucel (hydroxypropylcellulose) (HPC)
[11] = dose: 200.0 mg/kg/injection, schedule: Q04DX003 (ip), vehicle: Klucel (hydroxypropylcellulose) (HPC)
[12] = dose: 400.0 mg/kg/injection, schedule: Q04DX003 (ip), vehicle: Klucel (hydroxypropylcellulose) (HPC)

Structure (SMILES): N#CCN(CC#N)CC#N
- T/C (dose: 3.13 mg/kg/injection, schedule: Q04DX003 (ip), vehicle: saline with Tween-80): 102 % of control
- T/C (dose: 6.25 mg/kg/injection, schedule: Q04DX003 (ip), vehicle: saline with Tween-80): 111 % of control

Structure (SMILES): C[n+]1ccc(/C=C/c2c(Cl)cccc2Cl)c2ccccc21
- T/C (dose: 3.13 mg/kg/injection, schedule: Q04DX003 (ip), vehicle: Klucel (hydroxypropylcellulose) (HPC)): 94 % of control
- T/C (dose: 6.25 mg/kg/injection, schedule: Q04DX003 (ip), vehicle: Klucel (hydroxypropylcellulose) (HPC)): 98 % of control
- T/C (dose: 12.5 mg/kg/injection, schedule: Q04DX003 (ip), vehicle: Klucel (hydroxypropylcellulose) (HPC)): 93 % of control

Structure (SMILES): CCC1CCC(NC(=O)N(CCF)N=O)CC1 (stereo unspecified)
- T/C (dose: 12.0 mg/kg/injection, schedule: Q01DX001 (ip), vehicle: other): 105 % of control
- T/C (dose: 18.0 mg/kg/injection, schedule: Q01DX001 (ip), vehicle: other): 114 % of control
- T/C (dose: 60.0 mg/kg/injection, schedule: Q01DX001 (ip), vehicle: other): 215 % of control
- T/C (dose: 93.0 mg/kg/injection, schedule: Q01DX001 (ip), vehicle: other): 223 % of control

Structure (SMILES): COc1cc2c(cc1O)C(CCc1cc(OC)c(OC)c(OC)c1)=[N+](C)CC2
- T/C (dose: 25.0 mg/kg/injection, schedule: Q04DX002 (ip), vehicle: Klucel (hydroxypropylcellulose) (HPC)): 101 % of control
- T/C (dose: 50.0 mg/kg/injection, schedule: Q04DX002 (ip), vehicle: Klucel (hydroxypropylcellulose) (HPC)): 101 % of control
- T/C (dose: 100.0 mg/kg/injection, schedule: Q04DX002 (ip), vehicle: Klucel (hydroxypropylcellulose) (HPC)): 105 % of control

Structure (SMILES): CSc1cccc(N2C(=O)CC(Sc3ccccc3N)C2=O)c1 (stereo unspecified)
- T/C [1]: 90 % of control
- T/C [2]: 95 % of control
- T/C [3]: 98 % of control

Structure (SMILES): O=S(=O)(F)c1cc(Cl)c(O)c(S(=O)(=O)F)c1
- T/C [1]: 101 % of control

Structure (SMILES): O=C(CCN1C(=O)c2ccccc2C1=O)c1ccc(O)cc1
- T/C (dose: 6.25 mg/kg/injection, schedule: Q01DX009 (ip), vehicle: saline with Tween-80): 97 % of control
- T/C (dose: 12.5 mg/kg/injection, schedule: Q01DX009 (ip), vehicle: saline with Tween-80): 98 % of control
- T/C (dose: 25.0 mg/kg/injection, schedule: Q01DX009 (ip), vehicle: saline with Tween-80): 91 % of control

Structure (SMILES): CC(=O)Oc1ccc(/C=C/C(=O)O)cc1OC(C)=O
- T/C (dose: 25.0 mg/kg/injection, schedule: Q04DX002 (ip), vehicle: saline with Tween-80): 101 % of control
- T/C (dose: 50.0 mg/kg/injection, schedule: Q04DX002 (ip), vehicle: saline with Tween-80): 97 % of control
- T/C (dose: 100.0 mg/kg/injection, schedule: Q04DX002 (ip), vehicle: saline with Tween-80): 94 % of control
- T/C (dose: 200.0 mg/kg/injection, schedule: Q04DX002 (ip), vehicle: saline with Tween-80): 87 % of control
- T/C (dose: 400.0 mg/kg/injection, schedule: Q04DX002 (ip), vehicle: saline with Tween-80): 93 % of control

Structure (SMILES): OCC12CCCCC1CC1(CC2)OCCO1 (stereo unspecified)
- T/C (dose: 50.0 mg/kg/injection, schedule: Q01DX009 (ip), vehicle: saline with Tween-80): 102 % of control
- T/C (dose: 100.0 mg/kg/injection, schedule: Q01DX009 (ip), vehicle: saline with Tween-80): 103 % of control
- T/C (dose: 100.0 mg/kg/injection, schedule: Q01DX009 (ip), vehicle: saline): 100 % of control
- T/C [4]: 86 % of control
- T/C (dose: 100.0 mg/kg/injection, schedule: Q04DX003 (ip), vehicle: saline): 111 % of control
- T/C (dose: 200.0 mg/kg/injection, schedule: Q01DX009 (ip), vehicle: saline with Tween-80): 96 % of control
- T/C (dose: 200.0 mg/kg/injection, schedule: Q01DX009 (ip), vehicle: saline): 102 % of control
- T/C [5]: 99 % of control
- T/C (dose: 200.0 mg/kg/injection, schedule: Q04DX003 (ip), vehicle: saline): 106 % of control
- T/C (dose: 400.0 mg/kg/injection, schedule: Q01DX009 (ip), vehicle: saline): 107 % of control
- T/C (dose: 400.0 mg/kg/injection, schedule: Q04DX003 (ip), vehicle: saline): 106 % of control

Structure (SMILES): CCOC(=N)c1ccc(C(=O)OCCOC)cc1
- T/C [6]: 97 % of control
- T/C [7]: 97 % of control
- T/C [8]: 97 % of control

Structure (SMILES): Cc1ccc(C(CS(=O)(=O)c2ccc(C)cc2)c2ccccc2)cc1 (stereo unspecified)
- T/C [6]: 92 % of control
- T/C [7]: 103 % of control
- T/C [8]: 94 % of control

Structure (SMILES): O=C(OCCl)c1ccc(Cl)cc1Cl
- T/C [4]: 87 % of control
- T/C [9]: 88 % of control

Structure (SMILES): CC(=O)OC1(N=NC(C)(C)C)C(C)(C)C(=O)C1(C)C
- T/C [10]: 91 % of control
- T/C [11]: 86 % of control
- T/C [12]: 91 % of control

Structure (SMILES): CC(=O)CC(C)=Nc1cccc(Cl)c1
- T/C (dose: 100.0 mg/kg/injection, schedule: Q01DX001 (ip), vehicle: Klucel (hydroxypropylcellulose) (HPC)): 106 % of control
- T/C [1]: 92 % of control
- T/C (dose: 200.0 mg/kg/injection, schedule: Q01DX001 (ip), vehicle: Klucel (hydroxypropylcellulose) (HPC)): 103 % of control
- T/C [2]: 108 % of control
- T/C (dose: 400.0 mg/kg/injection, schedule: Q01DX001 (ip), vehicle: Klucel (hydroxypropylcellulose) (HPC)): 100 % of control
- T/C [3]: 94 % of control

Structure (SMILES): Cc1ccc(S(=O)(=O)CC(=O)NC(C)C)cc1
- T/C [4]: 100 % of control
- T/C [5]: 110 % of control
- T/C [9]: 97 % of control

Structure (SMILES): CCC(C)CC=O (stereo unspecified)
- T/C (dose: 50.0 mg/kg/injection, schedule: Q01DX001 (ip), vehicle: carboxymethylcellulose (CMC)): 95 % of control
- T/C (dose: 100.0 mg/kg/injection, schedule: Q01DX001 (ip), vehicle: carboxymethylcellulose (CMC)): 98 % of control
- T/C (dose: 200.0 mg/kg/injection, schedule: Q01DX001 (ip), vehicle: carboxymethylcellulose (CMC)): 93 % of control
- T/C (dose: 400.0 mg/kg/injection, schedule: Q01DX001 (ip), vehicle: carboxymethylcellulose (CMC)): 101 % of control

Structure (SMILES): O=C1C(Cl)CCCCC1Cl (stereo unspecified)
- T/C (dose: 100.0 mg/kg/injection, schedule: Q01DX009 (ip), vehicle: acetone): 93 % of control
- T/C (dose: 100.0 mg/kg/injection, schedule: Q04DX003 (ip), vehicle: acetone): 111 % of control
- T/C (dose: 200.0 mg/kg/injection, schedule: Q01DX009 (ip), vehicle: acetone): 91 % of control
- T/C (dose: 200.0 mg/kg/injection, schedule: Q04DX003 (ip), vehicle: acetone): 111 % of control
- T/C (dose: 400.0 mg/kg/injection, schedule: Q04DX003 (ip), vehicle: acetone): 92 % of control

Structure (SMILES): CC1(C)N=C(N)Nc2nnc(-c3ccc(Cl)cc3)n21
- T/C [4]: 97 % of control
- T/C [5]: 97 % of control
- T/C [9]: 94 % of control

Structure (SMILES): CCSC1=NCCS1
- T/C (dose: 9.5 mg/kg/injection, schedule: Q01DX001 (ip), vehicle: other): 103 % of control
- T/C (dose: 19.0 mg/kg/injection, schedule: Q01DX001 (ip), vehicle: other): 112 % of control
- T/C (dose: 38.0 mg/kg/injection, schedule: Q01DX001 (ip), vehicle: other): 103 % of control
- T/C (dose: 75.0 mg/kg/injection, schedule: Q01DX001 (ip), vehicle: other): 112 % of control
- T/C (dose: 150.0 mg/kg/injection, schedule: Q01DX001 (ip), vehicle: other): 101 % of control

Structure (SMILES): O=[N+]([O-])c1ccc(S(=O)c2ccc([N+](=O)[O-])cc2)cc1
- T/C [1]: 108 % of control
- T/C [10]: 98 % of control
- T/C [2]: 95 % of control
- T/C [11]: 98 % of control
- T/C [3]: 101 % of control
- T/C [12]: 93 % of control

Structure (SMILES): NNC(=O)C1CC12CC2 (stereo unspecified)
- T/C [6]: 106 % of control and 109 % of control
- T/C [7]: 103 % of control

Structure (SMILES): O=C(Nc1nc2ccccc2[nH]1)c1ccc(C(=O)Nc2nc3ccccc3[nH]2)cc1
- T/C (dose: 15.0 mg/kg/injection, schedule: Q01DX Z (ip), vehicle: other): 100 % of control
- T/C (dose: 30.0 mg/kg/injection, schedule: Q01DX Z (ip), vehicle: other): 100 % of control
- T/C (dose: 60.0 mg/kg/injection, schedule: Q01DX Z (ip), vehicle: other): 100 % of control
- T/C (dose: 120.0 mg/kg/injection, schedule: Q01DX Z (ip), vehicle: other): 97 % of control
- T/C (dose: 180.0 mg/kg/injection, schedule: Q01DX Z (ip), vehicle: carboxymethylcellulose (CMC)): 102 % of control
- T/C (dose: 270.0 mg/kg/injection, schedule: Q01DX Z (ip), vehicle: carboxymethylcellulose (CMC)): 96 % of control
